Measurements reported in PMC11157048 (Frontiers in Pharmacology, 2024).

Columns and labels:
CYP3A4.1 = CYP3A4.1 (Homo sapiens, UniProt P08684); test: Enzyme kinetics of aumolertinib, recombinant CYP3A4.1; assay type: in vitro ADME; set-up: made in house; host or cells: Sf21 insect cells (baculovirus); details: CYP3A4.1, text value
Procedure: Specifically, first the pFastBac-CYPOR-CYP3A4 and CYPb5 plasmids are constructed, then the plasmids are transformed into DH10Bac cells to obtain the bacmid DNA. Subsequently, the bacmid DNA is transfected into Sf21 insect cells to generate high titer recombinant baculoviruses. After infecting the Sf21 cells with the high titer baculovirus, the cell suspension is collected. Finally, the cells are disrupted by sonication, and the microsomes are prepared by ultracentrifugation. To examine the expression of the target proteins and the CYP content, Western blot analysis and carbon monoxide difference spectroscopy were performed, respectively.
The reaction start, termination and sample processing are the same as described above.

[1] = Pharmacokinetics in AAV8-CYP3A4*1 mice; details: C57BL/6J, mouse, in vivo, po, 16.5 mg/kg; for CL/F: CLz/F; for Vd/F: Vz/F; for half-life: t1/2z
[2] = Pharmacokinetics of aumolertinib and HAS-719 in SD rats; details: for AUC(0-t) / AUC(0-inf) / CL/F / Cmax / Tmax / Vd/F / half-life: Sprague-Dawley, rat, plasma, po, 11 mg/kg; for CL/F: CLz/F; for Vd/F: Vz/F; for half-life: t1/2z
[3] = Pharmacokinetics in AAV8-CYP3A4*12 mice; details: C57BL/6J, mouse, serum, po, 16.5 mg/kg; for CL/F: CLz/F; for Vd/F: Vz/F; for half-life: t1/2z
[4] = Pharmacokinetics in AAV8-Ctrl mice; details: C57BL/6J, mouse, serum, po, 16.5 mg/kg; for CL/F: CLz/F; for Vd/F: Vz/F; for half-life: t1/2z
[5] = aumolertinib 16.5 mg/kg oral alone (Aum)
[6] = carvedilol 7.5 mg/kg 0.5 h before aumolertinib 16.5 mg/kg oral (Car+Aum)
[7] = telmisartan 12 mg/kg 0.5 h before aumolertinib 16.5 mg/kg oral (Tel+Aum)
[8] = aumolertinib 11 mg/kg oral alone (Aum)
[9] = carvedilol 5 mg/kg oral 0.5 h before aumolertinib 11 mg/kg oral (Car + Aum)
[10] = telmisartan 8 mg/kg oral 0.5 h before aumolertinib 11 mg/kg oral (Tel + Aum)

Sequence of CYP3A4.1 (P08684 whole entry): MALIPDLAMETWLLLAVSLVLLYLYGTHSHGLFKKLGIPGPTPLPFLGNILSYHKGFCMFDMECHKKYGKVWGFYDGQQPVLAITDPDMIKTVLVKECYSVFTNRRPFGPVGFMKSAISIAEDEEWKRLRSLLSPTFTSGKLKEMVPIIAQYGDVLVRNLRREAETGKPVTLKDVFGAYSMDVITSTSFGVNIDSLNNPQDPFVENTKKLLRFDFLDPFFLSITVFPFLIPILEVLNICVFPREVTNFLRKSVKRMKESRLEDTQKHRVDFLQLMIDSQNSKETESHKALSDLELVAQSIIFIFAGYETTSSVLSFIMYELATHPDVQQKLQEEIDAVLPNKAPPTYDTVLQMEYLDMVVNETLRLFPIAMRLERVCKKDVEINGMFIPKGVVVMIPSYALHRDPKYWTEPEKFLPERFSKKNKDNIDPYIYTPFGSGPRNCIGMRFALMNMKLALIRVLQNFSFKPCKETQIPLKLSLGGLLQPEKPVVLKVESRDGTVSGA

C=CC(=O)Nc1cc(Nc2nccc(-c3cn(C4CC4)c4ccccc34)n2)c(OC)cc1N(C)CCN(C)C [Aumolertinib]
Clint (CYP3A4.1): 0.58 μL/min/pmol CYP | Km (CYP3A4.1; human, recombinant CYP3A4.1 cell microsomes (Sf21 insect cells)): 3.2 µM | AUC(0-t) [1, 5]: 1370 ng·h/mL | AUC(0-t) [1, 6]: 1730 ng·h/mL | AUC(0-t) [1, 7]: 2890 ng·h/mL | AUC(0-inf) [1, 5]: 1390 ng·h/mL | AUC(0-inf) [1, 6]: 1970 ng·h/mL | AUC(0-inf) [1, 7]: 3710 ng·h/mL | CL/F [1, 5]: 221 mL/min/kg | CL/F [1, 6]: 145 mL/min/kg | CL/F [1, 7]: 110 mL/min/kg | Cmax [1, 5]: 95.4 ± 26.4 ng/mL | Cmax [1, 6]: 96.5 ± 39 ng/mL | Cmax [1, 7]: 154 ± 62.7 ng/mL | Tmax [1, 5]: 1.64 ± 1.18 h | Tmax [1, 6]: 11.6 ± 11.7 h | Tmax [1, 7]: 16.3 ± 14.1 h | Vd/F [1, 5]: 165 ± 125 L/kg | Vd/F [1, 6]: 105 ± 73.6 L/kg | Vd/F [1, 7]: 49.9 ± 33.6 L/kg | half-life [1, 5]: 7.89 ± 2.76 h | half-life [1, 6]: 9.63 ± 8.92 h | half-life [1, 7]: 5.75 ± 3.22 h | AUC(0-t) [2, 8]: 65.9 ± 27.6 ng·h/mL | AUC(0-t) [2, 9]: 198 ± 121 ng·h/mL | AUC(0-t) [2, 10]: 153 ± 175 ng·h/mL | AUC(0-inf) [2, 8]: 65.9 ± 27.6 ng·h/mL | AUC(0-inf) [2, 9]: 203 ± 133 ng·h/mL | AUC(0-inf) [2, 10]: 153 ± 175 ng·h/mL | CL/F [2, 8]: 3090 mL/min/kg | CL/F [2, 9]: 1150 mL/min/kg | CL/F [2, 10]: 2060 mL/min/kg | Cmax [2, 8]: 9.48 ± 3.93 ng/mL | Cmax [2, 9]: 21.8 ± 8 ng/mL | Cmax [2, 10]: 8.73 ± 7.55 ng/mL | Tmax [2, 8]: 5.17 ± 1.33 h | Tmax [2, 9]: 7.33 ± 2.42 h | Tmax [2, 10]: 8.67 ± 2.73 h | Vd/F [2, 8]: 675 ± 273 L/kg | Vd/F [2, 9]: 375 ± 140 L/kg | Vd/F [2, 10]: 582 ± 299 L/kg | half-life [2, 8]: 2.62 ± 0.94 h | half-life [2, 9]: 4.44 ± 2.79 h | half-life [2, 10]: 3.21 ± 0.24 h | increase of AUC(0-t) after combination with carvedilol ([2]; carvedilol 5 mg/kg + aumolertinib 11 mg/kg oral vs aumolertinib alone): more than 3 time | AUC(0-t) [3, 5]: 3300 ng·h/mL | AUC(0-t) [3, 6]: 2480 ng·h/mL | AUC(0-t) [3, 7]: 4460 ng·h/mL | AUC(0-inf) [3, 5]: 3460 ng·h/mL | AUC(0-inf) [3, 6]: 2510 ng·h/mL | AUC(0-inf) [3, 7]: 8020 ng·h/mL | CL/F [3, 5]: 87.2 mL/min/kg | CL/F [3, 6]: 124 mL/min/kg | CL/F [3, 7]: 51.3 mL/min/kg | Cmax [3, 5]: 194 ± 48.8 ng/mL | Cmax [3, 6]: 143 ± 102 ng/mL | Cmax [3, 7]: 186 ± 74.4 ng/mL | Tmax [3, 5]: 5.14 ± 8.32 h | Tmax [3, 6]: 8 ± 7.57 h | Tmax [3, 7]: 9.43 ± 10.2 h | Vd/F [3, 5]: 83.2 ± 30.5 L/kg | Vd/F [3, 6]: 70.4 ± 38.6 L/kg | Vd/F [3, 7]: 90.3 ± 85 L/kg | half-life [3, 5]: 11.9 ± 5.16 h | half-life [3, 6]: 6.44 ± 2.34 h | half-life [3, 7]: 29.1 ± 28.9 h | AUC(0-t) [4, 5]: 1800 ng·h/mL | AUC(0-t) [4, 6]: 1970 ng·h/mL | AUC(0-t) [4, 7]: 3230 ng·h/mL | AUC(0-inf) [4, 5]: 1850 ng·h/mL | AUC(0-inf) [4, 6]: 1980 ng·h/mL | AUC(0-inf) [4, 7]: 3810 ng·h/mL | CL/F [4, 5]: 148 mL/min/kg | CL/F [4, 6]: 145 mL/min/kg | CL/F [4, 7]: 83 mL/min/kg | Cmax [4, 5]: 177 ± 59.9 ng/mL | Cmax [4, 6]: 99.8 ± 27.5 ng/mL | Cmax [4, 7]: 163 ± 65.6 ng/mL | Tmax [4, 5]: 1.29 ± 0.49 h | Tmax [4, 6]: 17.7 ± 10.7 h | Tmax [4, 7]: 2.43 ± 1.13 h | Vd/F [4, 5]: 98.8 ± 56.3 L/kg | Vd/F [4, 6]: 38.6 ± 23.7 L/kg | Vd/F [4, 7]: 68.2 ± 44.6 L/kg | half-life [4, 5]: 8.21 ± 5.1 h | half-life [4, 6]: 3.12 ± 1.79 h | half-life [4, 7]: 9.43 ± 4.77 h
